Consider 2 molecules from the NIST ThermoML archive (doi:10.1016/j.fluid.2006.06.022).

For this series the following is noted: Liquid, Ebulliometric method (Recirculating still).

± gives the expanded uncertainty stated by the source.

What is called vapor or sublimation pressure is the pressure of vapour in equilibrium with the condensed phase. `CC(F)(F)F` [1,1,1-trifluoroethane]: the “vapor or sublimation pressure” value reads like this: (313.15 K) 1831 ± 9 kPa; (323.15 K) 2307 ± 10 kPa; (333.15 K) 2874 ± 13 kPa.
`CCC` [propane]: the “vapor or sublimation pressure” value is, setting by setting: (313.15 K) 1374 ± 6 kPa; (323.15 K) 1712 ± 8 kPa; (333.15 K) 2115 ± 9 kPa; (343.15 K) 2586 ± 11 kPa; (353.15 K) 3151 ± 14 kPa; (363.15 K) 3767 ± 16 kPa.
